“Also recorded” adds a separate entry of the source.
Experiments:
islets [1] = test: Glucose-stimulated insulin release (GSIR) of islets cultured at 0% O2 with CPO; type: cell-based, Sprague Dawley Rats; details: added to the culture media; p<0.05
Method: (§1) Islets were obtained from male Sprague Dawley Rats (300-350 g) and cultured in vitro overnight at 37° C., 5% CO2. Supplemented CMRL media (Gibco) incubated at 0% O2 overnight in a hypoxia chamber (XVivo, Biospherix) in order to allow media to deoxygenate. Dissolved oxygen levels were measured in the media using dissolved oxygen meter (Oakton D110).
(§2) For all viability studies, islets were stained with the following probes to determine viability status based on positive staining: Calcein Blue: live; propidium iodide: dead; and YoPro-1; apoptotic. Islet function was evaluated by looking at glucose stimulated insulin response (GSIR). Islet stimulation index (insulin release at high glucose concentration/insulin release at low glucose concentrations) or SI was calculated after insulin release was quantified using an ELISA.
In order to be useful for diabetes treatment, the isolated islets must retain the ability to produce insulin, not just maintain viability. Thus, the insulin release characteristics of islets cultured at 0% O2 in the presence of CPO was investigated by measuring the glucose-stimulated insulin release (GSIR).

[2] = Oxygen release from POGS (dissolved oxygen in media, hypoxia chamber); type: physicochemical
Method: as §1
Phosphate-complexed calcium peroxide (PcCPO) was synthesized by mixing calcium peroxide (CPO) with phosphate-buffered saline at 10 mg/mL and incubating at 37° C. overnight. CP or PcCP was dissolved in a 1.5% UPLVM solution and alginate microcapsules were produced as described above. All oxygen concentration assays were performed in a controlled hypoxic chamber at 37° C. 5% CO2 0% ambient O2 to ensure that the data obtained was not confounded by changes in ambient O2 during the experiment.
[…] No islets were used in this experiment. […] When a 1:1 mixture of culture media and PBS was used, unencapsulated CPO (“PGS/PBS”) caused a rapid rise to 20% dissolved oxy gen which was sustained for at least an hour before gradually falling to 10%.

[3] = PFC oxygen content and release in culture media; type: physicochemical
Method: (§3) Islets from Sprague Dawley rats were isolated, cultured, and assessed as described above. Three concentrations of perfluorodecalin (“PFD”) were added to the culture media: 0.1 ml PFC/ml media (“low PFC”), 0.375 ml PFC/ml media (“medium PFC”), and 0.75 ml PFC/ml media (“high PFC”).
A first experiment was performed under 20% and 0% oxygen culture conditions in the absence of islets to characterize the oxygen release rates of various PFC concentrations and under different PFC-oxygen charging conditions. […] The PFCs were charged for 15 minutes in 40% O2 prior to plating.

islets [4] = test: Effect of PFCs on islet viability in hypoxic culture; type: cell-based, Sprague Dawley rats; details: for Apoptotic (%) / Dead (%) / Live (%): 0% O2, 24 hours
Method: as §2, §3
In a second experiment, islets were plated under 0% or 20% oxygen conditions, as outlined above. Hypoxic islets were supplemented with low, medium, or high PFC levels, charged for 15 minutes in 40% O2 prior to plating. Islet viability was assessed as described above.

macrophages = test: Macrophage attachment to microcapsules cultured with macrophages; type: cell-based; details: incorporated in 2.5% UPLVM microcapsules with porcine islet cells
Method: Porcine islet cells were encapsulated to 2.5% UPLVM microcapsules using the methods described above. One set of microcapsules incorporated CXCL12/SLF-1 to investigate the locally immunosuppressive effects of this immunorepellant. Microcapsules were then cultured in the presence of macrophages.

islets [5] = test: Viability of isolated islets under hypoxia with CPO; type: cell-based, Sprague Dawley Rats; details: 5 mg/ml or 10 mg/ml in culture media or culture media/PBS mixture; p<0.01 relative to 0% O2 without POGS
Method: as §1, §2
About 60% and 70% of islets were alive and viable immediately after isolation and after the 24 hour culture at 20% O2, respectively. However, the proportion of live/viable islets dropped to less than 30% after 24 hour culture at 0% O2. Islets cultured for 24 hours at 0% O2 were rescued by 5 mg/ml or 10 mg/ml CPO (“POGS”) in culture media or in the culture media/PBS mixture (p<0.01 relative to 0% O2 without POGS).

[6] = medium PFC 0.375 ml PFC/ml media

In the case of “Phosphate-complexed calcium peroxide [PcCPO]”, the “Effect on reduction of GSIR in islets cultured 24 hrs at 0% O2” value (islets [1]) is reported as “significantly reversed this reduction” and the “Dissolved oxygen content versus uncomplexed CPO” value ([2]; encapsulated, 5 mg/ml) is reported as “higher dissolved oxygen content than uncomplexed CPO”.
With `FC1(F)C(F)(F)C(F)(F)C2(F)C(F)(F)C(F)(F)C(F)(F)C(F)(F)C2(F)C1(F)F` (centres unmarked) [PFC, perfluorodecalin] the “Time for oxygen content to fall from 40% to the ambient 20%” value ([3]; charged 15 to 90 minutes in 40% O2, added to culture media at 20% O2) was no more than 10 min, the “O2 release profile under hypoxic conditions” value ([3]; charged 15 minutes in 40% O2) was “prolonged O2 release profile” and the “Apoptotic (%)” value (islets [4]; high PFC 0.75 ml PFC/ml media) was 17.7%. The “Dead (%)” value (islets [4]; high PFC 0.75 ml PFC/ml media) was 39.9%, the “Live (%)” value (islets [4]; high PFC 0.75 ml PFC/ml media) was 42.3% and the “Apoptotic (%)” value (islets [4]; low PFC 0.1 ml PFC/ml media) was 8.73%. The “Dead (%)” value (islets [4]; low PFC 0.1 ml PFC/ml media) was 42.1%, the “Live (%)” value (islets [4]; low PFC 0.1 ml PFC/ml media) was 49.2% and the “Apoptotic (%)” value (islets [4]; [6]) was 0.355%. The “Dead (%)” value (islets [4]; [6]) was 69.1%, the “Live (%)” value (islets [4]; [6]) was 30.5% and the “Islet viability at 24 hours under hypoxic conditions” value (islets [4]; all PFC concentrations) was “significantly improved islet viability”.
For “CXCL12/SLF-1: immunorepellant incorporated into 2.5% UPLVM microcapsules”, the “Macrophage attachment to microcapsule” value (macrophages) was “no macrophage attachment; also recorded: observed only for the microcapsules lacking CXCL12/SLF-1”.
In the case of `[Ca+2].[O-][O-]` [CPO, calcium peroxide], the “Effect on reduction of GSIR in islets cultured 24 hrs at 0% O2” value (islets [1]) is reported as “significantly reversed this reduction”, the Dissolved oxygen content ([2]; unencapsulated CPO 10 mg/ml in 1:1 culture media and PBS, after gradual fall) is reported as 10% and the Dissolved oxygen content ([2]; unencapsulated CPO 10 mg/ml in 1:1 culture media and PBS, rapid rise, sustained at least an hour) is reported as 20%. The Dissolved oxygen content ([2]; unencapsulated CPO 10 mg/ml in culture media, hypoxia chamber, immediate and sustained) was “about 40%” and the “Viability of islets cultured 24 hours at 0% O2” value (islets [5]) was “rescued”.

From patent US20180369289A1, “CELL TRANSPLANTATION DEVICE” (THE REGENTS OF THE UNIVERSITY OF CALIFORNIA, priority 2015, published 2018)
